Experimental data reported in patent publication US20210284952A1, “METHODS OF APPLYING ACETATE TOXICITY AND INDUCING ACETATE UPTAKE IN MICROALGAE CULTURES” (HELIAE DEVELOPMENT LLC, priority 2016, published 2021).
Where two headings read alike, the source gives them in different places.

Columns and labels:
Chlorella sp. HS26 [1] = system: Chlorella sp. HS26
Procedure: Cultures of Chlorella sp. […] 100 mL volume cultures were prepared in 250 mL flasks, and cultured at a pH of 7.5, temperature of 25° C., a shaking frequency of 100 rpm, and a light intensity of 100 μM photon/m^2 s for 7 days (168 hours).

Chlorella sp. HS26 [2] = details: for Cell Dry Weight of Chlorella: 2.4 g/L
Procedure: This experiment was conducted to determine the effect of different culture medium pH levels on the growth of Chlorella sp. HS26 at a constant culture medium acetate concentration. Duplicate 100 ml flasks of axenic cultures of Chlorella were adjusted to initial pH levels of 2.5, 3.5, 4.5, 5.5, 6.5, 7.0, 7.5, 8.5, 9.5, and 10.5. The culture pH was adjusted using either hydrochloric acid (HCl) or sodium hydroxide (NaOH). […] Samples of the flask culture were taken initially and every other day over a six day period (144 hours).

CC(=O)[O-].[Na+] [Sodium Acetate, sodium acetate]
growth (Chlorella sp. HS26 [1]; 2.5 g/L sodium acetate): 0.620 g/L day | time to reach exponential phase (Chlorella sp. HS26 [1]; 2.5 g/L sodium acetate): 48 h | growth (Chlorella sp. HS26 [1]; 5 g/L sodium acetate): 0.065 g/L day | Chlorella dry weights (Chlorella sp. HS26 [1]; sodium acetate 2.5 g/L, 0 h): 0.12 g/L | Chlorella dry weights (Chlorella sp. HS26 [1]; sodium acetate 2.5 g/L, 24 h): 0.23 g/L | Chlorella dry weights (Chlorella sp. HS26 [1]; sodium acetate 2.5 g/L, 48 h): 0.85 g/L | Chlorella dry weights (Chlorella sp. HS26 [1]; sodium acetate 2.5 g/L, 72 h): 1.10 g/L | Chlorella dry weights (Chlorella sp. HS26 [1]; sodium acetate 2.5 g/L, 144 h): 2.72 g/L | Chlorella dry weights (Chlorella sp. HS26 [1]; sodium acetate 2.5 g/L, 168 h): 3.23 g/L | Chlorella dry weights (Chlorella sp. HS26 [1]; sodium acetate 5 g/L, 0 h): 0.12 g/L | Chlorella dry weights (Chlorella sp. HS26 [1]; sodium acetate 5 g/L, 24 h): 0.19 g/L | Chlorella dry weights (Chlorella sp. HS26 [1]; sodium acetate 5 g/L, 48 h): 0.25 g/L | Chlorella dry weights (Chlorella sp. HS26 [1]; sodium acetate 5 g/L, 72 h): 0.55 g/L | Chlorella dry weights (Chlorella sp. HS26 [1]; sodium acetate 5 g/L, 144 h): 1.89 g/L | Chlorella dry weights (Chlorella sp. HS26 [1]; sodium acetate 5 g/L, 168 h): 2.41 g/L | Chlorella dry weights (Chlorella sp. HS26 [1]; sodium acetate 10 g/L, 0 h): 0.12 g/L | Chlorella dry weights (Chlorella sp. HS26 [1]; sodium acetate 10 g/L, 24 h): 0.13 g/L | Chlorella dry weights (Chlorella sp. HS26 [1]; sodium acetate 10 g/L, 48 h): 0.16 g/L | Chlorella dry weights (Chlorella sp. HS26 [1]; sodium acetate 10 g/L, 72 h): 0.11 g/L | Chlorella dry weights (Chlorella sp. HS26 [1]; sodium acetate 10 g/L, 144 h): 0.09 g/L | Chlorella dry weights (Chlorella sp. HS26 [1]; sodium acetate 10 g/L, 168 h): 0.00 g/L | Chlorella dry weights (Chlorella sp. HS26 [1]; sodium acetate 20 g/L, 0 h): 0.12 g/L | Chlorella dry weights (Chlorella sp. HS26 [1]; sodium acetate 20 g/L, 24 h): 0.16 g/L | Chlorella dry weights (Chlorella sp. HS26 [1]; sodium acetate 20 g/L, 48 h): 0.13 g/L | Chlorella dry weights (Chlorella sp. HS26 [1]; sodium acetate 20 g/L, 72 h): 0.12 g/L | Chlorella dry weights (Chlorella sp. HS26 [1]; sodium acetate 20 g/L, 144 h): 0.07 g/L | Chlorella dry weights (Chlorella sp. HS26 [1]; sodium acetate 20 g/L, 168 h): 0.00 g/L | Chlorella dry weights (Chlorella sp. HS26 [1]; sodium acetate 30 g/L, 0 h): 0.12 g/L | Chlorella dry weights (Chlorella sp. HS26 [1]; sodium acetate 30 g/L, 24 h): 0.14 g/L | Chlorella dry weights (Chlorella sp. HS26 [1]; sodium acetate 30 g/L, 48 h): 0.11 g/L | Chlorella dry weights (Chlorella sp. HS26 [1]; sodium acetate 30 g/L, 72 h): 0.09 g/L | Chlorella dry weights (Chlorella sp. HS26 [1]; sodium acetate 30 g/L, 144 h): 0.08 g/L | Chlorella dry weights (Chlorella sp. HS26 [1]; sodium acetate 30 g/L, 168 h): 0.00 g/L | Chlorella dry weights (Chlorella sp. HS26 [1]; sodium acetate 40 g/L, 0 h): 0.12 g/L | Chlorella dry weights (Chlorella sp. HS26 [1]; sodium acetate 40 g/L, 24 h): 0.11 g/L | Chlorella dry weights (Chlorella sp. HS26 [1]; sodium acetate 40 g/L, 48 h): 0.09 g/L | Chlorella dry weights (Chlorella sp. HS26 [1]; sodium acetate 40 g/L, 72 h): 0.10 g/L | Chlorella dry weights (Chlorella sp. HS26 [1]; sodium acetate 40 g/L, 144 h): 0.09 g/L | Chlorella dry weights (Chlorella sp. HS26 [1]; sodium acetate 40 g/L, 168 h): 0.00 g/L | acetate concentration tolerance (Chlorella sp. HS26 [1]; sodium acetate in the culture, pH 7.5): approximately 7.5 g/L | cell dry weight over time (Chlorella sp. HS26 [2]; 2.4 g/L sodium acetate, pH of 5.5 or lower): did not increase over time | Cell Dry Weight of Chlorella (Chlorella sp. HS26 [2]; initial pH 2.5, 0 h): 0.6 g/L | Cell Dry Weight of Chlorella (Chlorella sp. HS26 [2]; initial pH 2.5, 24 h): 0.5 g/L | Cell Dry Weight of Chlorella (Chlorella sp. HS26 [2]; initial pH 2.5, 48 h): 0.5 g/L | Cell Dry Weight of Chlorella (Chlorella sp. HS26 [2]; initial pH 3.5, 0 h): 0.6 g/L | Cell Dry Weight of Chlorella (Chlorella sp. HS26 [2]; initial pH 3.5, 24 h): 0.5 g/L | Cell Dry Weight of Chlorella (Chlorella sp. HS26 [2]; initial pH 3.5, 48 h): 0.5 g/L | Cell Dry Weight of Chlorella (Chlorella sp. HS26 [2]; initial pH 4.5, 0 h): 0.6 g/L | Cell Dry Weight of Chlorella (Chlorella sp. HS26 [2]; initial pH 4.5, 24 h): 0.5 g/L | Cell Dry Weight of Chlorella (Chlorella sp. HS26 [2]; initial pH 4.5, 48 h): 0.4 g/L | Cell Dry Weight of Chlorella (Chlorella sp. HS26 [2]; initial pH 5.5, 0 h): 0.6 g/L | Cell Dry Weight of Chlorella (Chlorella sp. HS26 [2]; initial pH 5.5, 24 h): 0.6 g/L | Cell Dry Weight of Chlorella (Chlorella sp. HS26 [2]; initial pH 5.5, 48 h): 0.6 g/L | Cell Dry Weight of Chlorella (Chlorella sp. HS26 [2]; initial pH 5.5, 96 h): 0.4 g/L | Cell Dry Weight of Chlorella (Chlorella sp. HS26 [2]; initial pH 6.5, 0 h): 0.6 g/L | Cell Dry Weight of Chlorella (Chlorella sp. HS26 [2]; initial pH 6.5, 24 h): 0.8 g/L | Cell Dry Weight of Chlorella (Chlorella sp. HS26 [2]; initial pH 6.5, 48 h): 1.8 g/L | Cell Dry Weight of Chlorella (Chlorella sp. HS26 [2]; initial pH 6.5, 96 h): 4.3 g/L | Cell Dry Weight of Chlorella (Chlorella sp. HS26 [2]; initial pH 6.5, 144 h): 6.0 g/L | Cell Dry Weight of Chlorella (Chlorella sp. HS26 [2]; initial pH 7.5, 0 h): 0.6 g/L | Cell Dry Weight of Chlorella (Chlorella sp. HS26 [2]; initial pH 7.5, 24 h): 0.6 g/L | Cell Dry Weight of Chlorella (Chlorella sp. HS26 [2]; initial pH 7.5, 48 h): 1.7 g/L | Cell Dry Weight of Chlorella (Chlorella sp. HS26 [2]; initial pH 7.5, 96 h): 4.4 g/L | Cell Dry Weight of Chlorella (Chlorella sp. HS26 [2]; initial pH 7.5, 144 h): 6.0 g/L
